Experimental findings from patent US20260327264A1, “PEPTIDE INHIBITORS OF INTERLEUKIN-23 RECEPTOR” (Zealand Pharma A/S, priority 2023, published 2026) are described below.

*1 amine or outer side, *2 acyl side, *3 side chain or, on linkers, in order; H or OH if unused. Where a SMILES comes first, the peptide text is derived from it. Bridges are numbered along the chain shown (N, C = ends). [ ]: non-standard residue; d: D form. 2Nal = N[C@@H](Cc1ccc2ccccc2c1)C(=O)O; AEF = NCCOc1ccc(C[C@H](N)C(=O)O)cc1; X1 = O=C(Cc1ccc(CN[*:1])cc1)[*:2]; 3Pal = N[C@@H](Cc1cccnc1)C(=O)O; αMeL = CC(C)C[C@](C)(N)C(=O)O; CH2COCH2 = O=C(C[*:1])C[*:2]; 3Amb = NCc1cccc(C(=O)O)c1; βAla = NCCC(=O)O

The target of one test is T1, human IL-23R (Homo sapiens, UniProt Q5VWK5).
T1 construct: Nanoluc luciferase (Nluc); secretion signal encoded by the plasmid (not specified); expressed in transfected cells; crude membranes used in the assay
T1 sequence (Q5VWK5 22-629): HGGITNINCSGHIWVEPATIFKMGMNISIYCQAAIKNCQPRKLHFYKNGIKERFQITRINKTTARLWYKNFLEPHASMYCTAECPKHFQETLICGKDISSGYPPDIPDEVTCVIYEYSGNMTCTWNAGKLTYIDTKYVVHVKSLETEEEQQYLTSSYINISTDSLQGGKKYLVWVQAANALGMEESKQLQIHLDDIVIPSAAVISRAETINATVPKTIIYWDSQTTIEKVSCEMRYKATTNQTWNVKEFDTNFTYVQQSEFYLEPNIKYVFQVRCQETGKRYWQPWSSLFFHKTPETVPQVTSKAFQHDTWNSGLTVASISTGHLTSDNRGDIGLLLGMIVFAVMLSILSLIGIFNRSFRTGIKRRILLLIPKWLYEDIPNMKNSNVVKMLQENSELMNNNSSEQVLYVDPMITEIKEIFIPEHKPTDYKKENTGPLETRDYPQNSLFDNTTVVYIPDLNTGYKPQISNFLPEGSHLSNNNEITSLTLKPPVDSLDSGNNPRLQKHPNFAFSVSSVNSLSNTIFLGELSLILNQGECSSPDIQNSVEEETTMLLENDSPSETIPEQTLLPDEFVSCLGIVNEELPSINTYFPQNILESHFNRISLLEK
The test is described as follows: Binding assay: displacement of fluorophore (TAMRA)-labelled reference compound from human IL-23R (BRET, Nluc-IL23R fusion protein membranes). The settings on record: for Emax: read-out: % displacement (hIL-23R binding). In general terms: In BRET a luciferase serves as donor, and the signal depends on an acceptor being close.

Test [1] has as its system IL-23 mediated STAT3 signalling (DB cells). The test is described as follows: Functional inhibition of IL-23 mediated STAT3 signalling (phospho-STAT3 Tyr705) in DB cells. Type of test: cell-based, human. The settings on record: for IC50: Table 3-2, EC80 of hIL-23, read-out: hIL-23 (pSTAT3) antagonist IC50; for hIL-23 (pSTAT3) antagonist % inhibition: Table 3-2, maximal inhibitory response, EC80 of hIL-23. An excerpt:
Upon binding of IL-23, the IL-23R forms a heterodimer signalling complex together with IL-12R β1, which through the JAK2/STAT3 pathway promotes phosphorylation of STAT3 to form phospho-STAT3.
For compounds tested in this assay, the response was normalized relative to control values to calculate the IC50 and maximal inhibitory response from a concentration response curve of the compound in presence of a fixed concentration of human IL-23.
The assay procedure was as follows. […] Following preincubation of the DB cells with inhibitor for 15 min in a cell incubator (37° C., 5% CO2), 20 μL of the prepared 3× the EC80 of hIL-23 solution was added to each well and incubated for 90 min in a cell incubator (37° C., 5% CO2). For some wells buffer only or IL-23 only corresponding to the EC80 was added to obtain readouts needed for normalization. To terminate the assay, the plate was spun at 1000 G for 5 min to pellet cells, the supernatant removed using an 8-channel manual pipette, and then added 50 μL/well Complete Lysis Buffer from the MSD STAT3 kit (Cat #K150SVD, Mesoscale) to the cell pellet. To completely lyse cells to release phospho-STAT3 for detection, the plate was shaken for 10 min at room temperature (500 rpm) sealed with aluminium foil and placed at −80° C. for a minimum of 15 min. Detection of the phospho-STAT3 level in the cell lysate from the individual wells was determined using the MSD STAT3 kit (Cat #K150SVD, Mesoscale) and read on a Meso QuickPlex SQ 120 plate reader (Mesoscale).
For data analysis raw data counts from the Meso QuickPlex SQ 120 plate reader were normalized relative to the response by the EC80 of hIL-23 alone (no compound added) and the buffer level.

For `CC(C)C[C@]1(C)NC(=O)[C@H](Cc2ccc3ccccc3c2)NC(=O)[C@H](Cc2ccc(OCCN)cc2)NC(=O)[C@@H]2CCNC(=O)CC[C@H](NC(=O)[C@H](CO)NC(=O)Cc3ccc(cc3)CNC(=O)CC[C@@H](C(=O)NC[C@H](N[C@@H](Cc3cccnc3)C(N)=O)C(F)(F)F)NC1=O)C(=O)N[C@@H](Cc1c[nH]c3ccccc13)C(=O)N[C@@H](CCC(N)=O)C(=O)N2` [Compound 17, [4-Aminomethyl-phenylacetyl](1c)*SE(2c)WQ[Dab](2c)[Y(2-aminoethoxy)][2-Nal][2-Me-Leu]E(1c)[Gly-CF3][3-(3-Pyridyl)-Ala]-[NH2]], at human IL-23R, the half-maximal inhibitory concentration (IC50) (usually the midpoint of a concentration-inhibition curve) worked out at 1.2 nM and the Emax came out at 98%.
As to `CC(=O)N[C@H]1CCSC[C@@H](C(=O)N[C@@H](Cc2ccc(OCCN)cc2)C(=O)N[C@@H](Cc2c[nH]c3ccccc23)C(=O)N[C@@](C)(CCCCN)C(=O)N[C@@H](CCC(=O)O)C(=O)N[C@@H](CC(N)=O)C(=O)NCC(N)=O)NC(=O)[C@H](CCC(N)=O)NC(=O)[C@H](Cc2c[nH]c3ccccc23)NC(=O)[C@H]([C@@H](C)O)NC(=O)[C@H](CCC(N)=O)NC1=O` [Compound C, [Ac]-[Abu](16i)QTWQC(16i)[Y(2-aminoethoxy)]W[2-Me-Lys]ENG-[NH2], reference compound], on human IL-23R, the Emax came out at 102%.
With `CC(C)C[C@]1(C)NC(=O)[C@H](Cc2ccc3ccccc3c2)NC(=O)[C@H](Cc2ccc(OCCN)cc2)NC(=O)[C@@H]2CSCC(=O)CSC[C@H](NC(=O)[C@H](CO)NC(=O)[C@H](Cc3cccnc3)NC(=O)CCNC(=O)CC[C@@H](C(=O)N[C@H](CCCNC(=N)N)C(N)=O)NC1=O)C(=O)N[C@@H](Cc1c[nH]c3ccccc13)C(=O)N[C@@H](CCC(N)=O)C(=O)N2` [Compound 1, [3-Aminopropanoyl](4c)*[3-(3-Pyridyl)-Ala]SC(2a)WQC(2a)[Y(2-aminoethoxy)][2-Nal][2-Me-Leu]E(4c)[{d}R]-[NH2]] ([βAla][3Pal]SCWQC[AEF][2Nal][αMeL]E[dR]-NH2; linker 4-7 via CH2COCH2; lactam N-11), at human IL-23R, the Emax is 105%.
Still for that read-out and setting: the same measure for `CNC(=O)[C@H](Cc1cccnc1)NC(=O)[C@H](CCN)NC(=O)[C@@H]1CCC(=O)NCc2ccc(cc2)CC(=O)N[C@@H](C)C(=O)N[C@H]2CCC(=O)NCC[C@H](NC(=O)[C@H](CCC(N)=O)NC(=O)[C@H](Cc3c[nH]c4ccccc34)NC2=O)C(=O)N[C@@H](Cc2c[nH]c3ccccc23)CC(=O)N[C@@H](Cc2ccc3ccccc3c2)C(=O)NC(C)(C)C(=O)N1` [Compound 45, [4-Aminomethyl-phenylacetyl](1c)*AE(2c)WQ[Dab](2c)[beta-hTrp][2-Nal][Aib]E(1c)[Dab][3-(3-Pyridyl)-Ala]-[NHMe]]: 104%; for `CC(C)C[C@]1(C)NC(=O)[C@H](Cc2ccc3ccccc3c2)NC(=O)[C@H](Cc2ccc(OCCN)cc2)NC(=O)[C@@H]2CSCC(=O)CSC[C@H](NC(=O)[C@H](CO)NC(=O)CCNC(=O)[C@H](Cc3cccnc3)NC(=O)CC[C@@H](C(=O)N[C@H](CCCNC(=N)N)C(N)=O)NC1=O)C(=O)N[C@@H](Cc1c[nH]c3ccccc13)C(=O)N[C@@H](CCC(N)=O)C(=O)N2` [Compound 2, [3-(3-Pyridyl)-Ala](4c)*[3-Aminopropanoy]SC(2a)WQC(2a)[Y(2-aminoethoxy)][2-Nal][2-Me-Leu]E(4c)[{d}R]-[NH2]] ([3Pal][βAla]SCWQC[AEF][2Nal][αMeL]E[dR]-NH2; linker 4-7 via CH2COCH2; lactam N-11): 103%.
Turning to `CC(C)C[C@]1(C)NC(=O)[C@H](Cc2ccc3ccccc3c2)NC(=O)[C@H](Cc2ccc(OCCN)cc2)NC(=O)[C@@H]2CSCC(=O)CSC[C@H](NC(=O)[C@H](CO)NC(=O)c3cccc(c3)CNC(=O)CC[C@@H](C(=O)N[C@@H](CCCNC(=N)N)C(=O)N[C@@H](Cc3cccnc3)C(N)=O)NC1=O)C(=O)N[C@@H](Cc1c[nH]c3ccccc13)C(=O)N[C@@H](CCC(N)=O)C(=O)N2` [Ref 78, [(3-Aminomethyl)benzoyl](1c)*SC(2a)WQC(2a)[Y(2-aminoethoxy)][2-Nal][2-Me-Leu]E(1c)R[3-(3-Pyridyl)-Ala]-[NH2], reference compound] ([3Amb]SCWQC[AEF][2Nal][αMeL]ER[3Pal]-NH2; linker 3-6 via CH2COCH2; lactam N-10), in test [1], the IC50 was found to be 0.13 nM and the “hIL-23 (pSTAT3) antagonist % inhibition” value was 100%.
On to `CNC(=O)[C@H](Cc1cccnc1)NC(=O)[C@H](CCN)NC(=O)[C@@H]1CCC(=O)NCc2ccc(cc2)CC(=O)N[C@@H](C)C(=O)N[C@H]2CCC(=O)NCC[C@H](NC(=O)[C@H](CCC(N)=O)NC(=O)[C@H](Cc3c[nH]c4ccccc34)NC2=O)C(=O)N[C@@H](Cc2ccc(OCCN)cc2)C(=O)N[C@@H](CC2CC2)C(=O)NC(C)(C)C(=O)N1` [Compound 42, [4-Aminomethyl-phenylacetyl](1c)*AE(2c)WQ[Dab](2c)[Y(2-aminoethoxy)][Cyclopropyl-Ala][Aib]E(1c)[Dab][3-(3-Pyridyl)-Ala]-[NHMe]], for which, on human IL-23R, the IC50 was determined as 12 nM and the Emax is 100%.
As for `CC(=O)N[C@@H](CC(=O)O)C(=O)N[C@H]1CCC(=O)NCCCC[C@@H](C(=O)N[C@@H](CCCNC(=N)N)C(N)=O)NC(=O)[C@H](CC(C)C)NC(=O)[C@H](Cc2ccc3ccccc3c2)NC(=O)[C@H](Cc2c[nH]c3ccccc23)NC(=O)[C@@H]2CSCC(=O)CSC[C@H](NC(=O)[C@H](CO)NC1=O)C(=O)N[C@@H](Cc1c[nH]c3ccccc13)C(=O)N[C@@H](CCC(N)=O)C(=O)N2` [Ref 17, [Ac]-DE(1c)SC(2a)WQC(2a)W[2-Nal]LK(1c)R-[NH2], reference compound], the concentration for half-maximal inhibition (IC50) in test [1] worked out at 370 nM.
In the case of `CC(C)C[C@]1(C)NC(=O)[C@H](Cc2ccc3ccccc3c2)NC(=O)[C@H](Cc2ccc(OCCN)cc2)NC(=O)[C@@H]2CCNC(=O)CC[C@H](NC(=O)[C@H](CO)NC(=O)Cc3ccc(cc3)CNC(=O)CC[C@@H](C(=O)NC[C@@H](N[C@@H](Cc3cccnc3)C(N)=O)C(F)(F)F)NC1=O)C(=O)N[C@@H](Cc1c[nH]c3ccccc13)C(=O)N[C@@H](CCC(N)=O)C(=O)N2` [Compound 16, [4-Aminomethyl-phenylacetyl](1c)*SE(2c)WQ[Dab](2c)[Y(2-aminoethoxy)][2-Nal][2-Me-Leu]E(1c)[{d}Gly-CF3][3-(3-Pyridyl)-Ala]-[NH2]], in test [1], the half-maximal inhibitory concentration (IC50) is 1.4 nM and the “hIL-23 (pSTAT3) antagonist % inhibition” value amounted to 97%.
On to `CNC(=O)[C@H](Cc1cccnc1)NC(=O)[C@H](COC)NC(=O)[C@@H]1CCC(=O)NCc2ccc(cc2)CC(=O)N[C@@H](C)C(=O)N[C@H]2CCC(=O)NCC[C@H](NC(=O)[C@H](CCC(N)=O)NC(=O)[C@H](Cc3c[nH]c4ccccc34)NC2=O)C(=O)N[C@@H](Cc2ccc(N3CCOCC3)cc2)C(=O)N[C@@H](Cc2ccc3ccccc3c2)C(=O)NC(C)(C)C(=O)N1` [Compound 53, [4-aminomethyl-phenylacetyl](1c)*AE(2c)WQ[Dab](2c)[F(4-morpholine)][2Nal][Aib]E(1c)[Ser(OCH3)][3-(3-Pyridyl)-alanyl]-[NHMe]], for which, at human IL-23R, the IC50 was found to be 0.23 nM and the Emax was found to be 102%.
With `CC(C)C[C@]1(C)NC(=O)[C@H](Cc2ccc3ccccc3c2)NC(=O)[C@H](Cc2ccc(OCCN)cc2)NC(=O)[C@@H]2CSCC(=O)CSC[C@H](NC(=O)[C@H](CO)NC(=O)Cc3ccc(cc3)CNC(=O)CC[C@@H](C(=O)N[C@H](CCCNC(=N)N)C(N)=O)NC1=O)C(=O)N[C@@H](Cc1c[nH]c3ccccc13)C(=O)N[C@@H](CCC(N)=O)C(=O)N2` [Ref 80, [4-Aminomethyl-phenylacetyl](1c)*SC(2a)WQC(2a)[Y(2-aminoethoxy)][2-Nal][2-Me-Leu]E(1c)[{d}R]-[NH2], reference compound] ([X1]SCWQC[AEF][2Nal][αMeL]E[dR]-NH2; linker 3-6 via CH2COCH2; lactam N-10), in test [1], the IC50 is 11 nM and the “hIL-23 (pSTAT3) antagonist % inhibition” value amounted to 97%.
